Source: PMC4657098, “A Review of the Updated Pharmacophore for the Alpha 5 GABA(A) Benzodiazepine Receptor Model” (International Journal of Medicinal Chemistry, 2015)
Like-named read-outs stand apart in the source and are kept apart here.

Legend:
Parameters in all cases: expressed in transfected cells
[1] = biological target: α5β3γ2 GABAA/BzR (Homo sapiens, UniProt P18507+P31644); assay: Competition binding to HEK cell membranes, α5β3γ2
[2] = biological target: α3β3γ2 GABAA/BzR (Homo sapiens, UniProt P18507+P34903); assay: Competition binding to HEK cell membranes, α3β3γ2
[3] = biological target: α6β3γ2 GABAA/BzR (Homo sapiens, UniProt P18507+Q16445); assay: Competition binding to HEK cell membranes, α6β3γ2
[4] = biological target: α1β3γ2 GABAA/BzR (Homo sapiens, UniProt P14867+P18507); assay: Competition binding to HEK cell membranes, α1β3γ2
[5] = biological target: α2β3γ2 GABAA/BzR (Homo sapiens, UniProt P18507+P47869); assay: Competition binding to HEK cell membranes, α2β3γ2

| Structure (SMILES) | Ki ([1]; read-out: Ki α5) [nM] | Ki ([2]; read-out: Ki α3) [nM] | Ki ([3]; Ki α6) [nM] | Ki ([1]; Ki α5) [nM] | Ki ([2]; Ki α3) [nM] | Ki ([4]; Ki α1) [nM] | Ki ([5]; Ki α2) [nM] | Ki ([4]; read-out: Ki α1) [nM] | Ki ([5]; read-out: Ki α2) [nM] | Ki ([3]; read-out: Ki α6) [nM] |
| --- | --- | --- | --- | --- | --- | --- | --- | --- | --- | --- |
| CCOc1cc2c(cn1)[nH]c1ccccc12 [3 EBC, 3-Ethoxy-beta-carboline] | 826 | 28.2 | 1000 |  |  |  |  |  |  |  |
| COCc1c(C(=O)OC(C)C)ncc2[nH]c3ccc(OCc4ccccc4)cc3c12 [ABECARNIL, reference compound] |  |  | 1000 | 6 | 7.5 | 12.4 | 15.3 |  |  |  |
| CC(C)(C)OC(=O)c1ncn2c1[C@@H]1CCCN1C(=O)c1c(Br)cccc1-2 [BRETAZENIL, reference compound] |  |  | 12.7 | 0.5 | 0.2 | 0.35 | 0.64 |  |  |  |
| CN1Cc2c(C(=O)OC3CC3)ncn2-c2ccc(Cl)cc2C1=O [CD-214] | 9.8 | 42.5 |  |  |  |  |  | 16.4 | 48.2 | 168 |
| COc1ccc(-n2nc3c4ccccc4[nH]cc-3c2=O)cc1 [CGS9895, reference compound] |  |  |  |  |  |  |  | 0.21 |  | 9.3 |
| O=C1C2C=Nc3ccccc3C2=NN1c1ccc(Cl)cc1 (centres unmarked) [CGS9896, reference compound] |  |  | 181 |  |  | 0.28 |  |  |  |  |
| CC[C@@H](C)OC(=O)c1cc2c(cn1)[nH]c1ccccc12 [CM-A49 (R)] | 69 | 43 |  |  |  |  |  | 7.7 | 32.5 | 1000 |
| CC[C@H](C)OC(=O)c1cc2c(cn1)[nH]c1ccccc12 [CM-A50 (S)] | 144 | 88 |  |  |  |  |  | 17 | 59 | 1000 |
| CCCCc1cc2c(cn1)[nH]c1ccc(F)cc12 [CM-A58] | 1000 | 184 |  |  |  |  |  | 16 | 120 | 1010 |
| CCC(C)OC(=O)c1cc2c(cn1)[nH]c1ccccc12 (centres unmarked) [CM-A64] | 216 | 116 |  |  |  |  |  | 18 | 60 | 1000 |
| CN1Cc2c(C(=O)OC(C)(C)C)ncn2-c2ccc(N3CCCC3)cc2C1=O [DM-139] | 9.25 | 169 |  |  |  |  |  | 5.8 |  | 325 |
| COc1ccc2c(c1)C(=O)N(C)Cc1c(C(=O)OC(C)(C)C)ncn1-2 [DM-215] | 0.293 | 7.42 |  |  |  |  |  | 6.74 |  | 8.28 |
| CN1Cc2c(C(=O)OC(C)(C)C)ncn2-c2ccc(O)cc2C1=O [DM-239] | 0.14 | 0.53 |  |  |  |  |  | 1.5 |  | 6.89 |
| O=C1CN=C(c2ccccc2Cl)c2cc(Br)ccc2N1 [DM-II-72] | 2.02 |  |  |  |  |  |  |  | 1.37 |  |
| Cc1nnc2n1-c1ccc(Br)cc1C(c1ccccc1Cl)=NC2 [DM-II-90 (C17H12N4BrCl)] | 0.37 | 0.63 |  |  |  |  |  |  | 1 | 5000 |
| O=C(O)c1ncn2c1CN=C(c1ccccc1)c1cc(Br)ccc1-2 [DM-III-01] | 4.73 |  |  |  |  |  |  |  | 12 |  |
| O=[N+]([O-])c1ccc2[nH]c3cnc([N+](=O)[O-])cc3c2c1 [EDC-I-071] | 314 |  |  |  |  |  |  | 12.9 | 83.1 | 5000 |
| S=C=Nc1ccc2[nH]c3cnc(N=C=S)cc3c2c1 [EDC-I-093] | 2910 |  |  |  |  |  |  | 13.6 | 423 | 5000 |
| CCOC(=O)c1ncc2[nH]c3ccc(OCc4cccc5ccccc45)cc3c2c1COC [EDC-II-044] | 323 | 293 |  |  |  |  |  | 15.4 |  | 1000 |
| C#Cc1ccc2c(c1)C(c1ccccc1F)=NCc1c(C(=O)NC)ncn1-2 [HJ-I-037] | 0.818 | 28.3 |  |  |  |  |  | 15.1 | 8.13 |  |
| C#Cc1ccc2c(c1)C(c1ccccc1)=NCC(NC)=N2 [Hz148] | 256 |  |  |  |  |  |  | 11 | 5000 | 5000 |
| O=C1CN=C(c2cccs2)c2cc(Br)ccc2N1 [JC184] | 6.71 |  |  |  |  |  |  | 9.61 | 10.5 |  |
| C#Cc1ccc2c(c1)C(c1cccs1)=NCC(=O)N2 [JC208] | 5.04 |  |  |  |  |  |  | 22.4 | 18.9 |  |
| C#Cc1ccc2c(c1)C(c1cccs1)=NCC(=O)N2C [JC222] | 17.6 |  |  |  |  |  |  | 86.7 | 45.1 |  |
| CC(C)(C)OC(=O)c1ncn2c1C1CCCN1C(=O)c1cc(Br)ccc1-2 (centres unmarked) [JYI-01] | 10.6 | 96 |  |  |  |  |  | 59.2 |  | 2.88 |
| C#Cc1ccc2c(c1)C(=O)N1CCCC1c1c(C(=O)OC(C)(C)C)ncn1-2 (centres unmarked) [JYI-03] | 0.954 |  |  |  |  |  |  | 185 | 107 | 3.34 |
| C=Cc1ccc2c(c1)C(=O)N1CCC[C@H]1c1c(C(=O)OC(C)(C)C)ncn1-2 [JYI-04] | 0.51 |  |  |  |  |  |  | 28.3 | 16 | 1.57 |
| O=C(OCC(F)(F)F)c1ncn2c1C1CCCN1C(=O)c1cc(Br)ccc1-2 (centres unmarked) [JYI-10] | 12.3 |  |  |  |  |  |  | 5000 | 368 | 23 |
